Data from patent US11208412B2 (DAEGU-GYEONGBUK MEDICAL INNOVATION FOUNDATION, priority 2017, dated 2021).

Assays:
Assay in all cases: Kinase selectivity, DiscoverX scanMAX Kinase assay panel (% control)
Type in all cases: binding
[1] = molecular target: T1, kinases of the scanMAX Kinase assay panel (Homo sapiens, UniProt P45985); details: MEK4; 1 uM
T1 construct: purchased DiscoverX Co. (contract measurement) scanMAX Kinase assay panel
T1 sequence (P45985 1-399): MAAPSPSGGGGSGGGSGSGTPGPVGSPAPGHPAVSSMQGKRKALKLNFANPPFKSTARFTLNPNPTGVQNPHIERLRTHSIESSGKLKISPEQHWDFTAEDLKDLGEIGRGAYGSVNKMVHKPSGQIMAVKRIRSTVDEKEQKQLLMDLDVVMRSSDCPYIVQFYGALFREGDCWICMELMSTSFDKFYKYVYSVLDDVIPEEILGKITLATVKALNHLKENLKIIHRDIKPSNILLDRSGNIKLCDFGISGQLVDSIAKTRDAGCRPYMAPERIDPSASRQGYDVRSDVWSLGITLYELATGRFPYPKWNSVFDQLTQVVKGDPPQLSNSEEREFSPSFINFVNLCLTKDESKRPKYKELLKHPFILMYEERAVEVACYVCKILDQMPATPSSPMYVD
Method in brief: (§1)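 Percent of control computed as (compound − positive control)/(negative control − positive control) × 100, DMSO defining 100% and positive control 0%. Each panel kinase exposed to 1 uM compound; values under 35% taken to mean the compound acts on that kinase.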

[2] = molecular target: T2, kinases of the scanMAX Kinase assay panel (Homo sapiens, UniProt Q14164); details: IKK-epsilon; 1 uM
T2 construct: purchased DiscoverX Co. (contract measurement) scanMAX Kinase assay panel
T2 sequence (Q14164 1-716): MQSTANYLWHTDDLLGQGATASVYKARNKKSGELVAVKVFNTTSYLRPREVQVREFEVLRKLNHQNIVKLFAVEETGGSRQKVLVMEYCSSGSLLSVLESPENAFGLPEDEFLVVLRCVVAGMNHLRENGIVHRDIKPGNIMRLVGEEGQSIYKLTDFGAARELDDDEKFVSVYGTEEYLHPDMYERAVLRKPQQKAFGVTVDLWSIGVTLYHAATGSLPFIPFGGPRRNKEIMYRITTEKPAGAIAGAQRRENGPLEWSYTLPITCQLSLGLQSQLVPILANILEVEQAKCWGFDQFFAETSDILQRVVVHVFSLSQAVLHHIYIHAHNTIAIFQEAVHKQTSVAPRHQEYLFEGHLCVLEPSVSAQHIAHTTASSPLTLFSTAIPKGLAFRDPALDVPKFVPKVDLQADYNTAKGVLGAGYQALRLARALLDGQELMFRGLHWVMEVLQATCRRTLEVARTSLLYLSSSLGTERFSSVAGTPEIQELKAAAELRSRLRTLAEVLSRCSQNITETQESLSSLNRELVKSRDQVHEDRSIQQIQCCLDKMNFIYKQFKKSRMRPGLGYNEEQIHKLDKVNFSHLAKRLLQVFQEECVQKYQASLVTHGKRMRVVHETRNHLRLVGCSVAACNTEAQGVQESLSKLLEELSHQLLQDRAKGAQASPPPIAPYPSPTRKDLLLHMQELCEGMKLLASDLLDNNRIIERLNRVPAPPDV
Method in brief: as §1

[3] = molecular target: T3, kinases of the scanMAX Kinase assay panel (Homo sapiens, UniProt Q16584); details: MLK3; 1 uM
T3 construct: purchased DiscoverX Co. (contract measurement) scanMAX Kinase assay panel
T3 sequence (Q16584 whole entry): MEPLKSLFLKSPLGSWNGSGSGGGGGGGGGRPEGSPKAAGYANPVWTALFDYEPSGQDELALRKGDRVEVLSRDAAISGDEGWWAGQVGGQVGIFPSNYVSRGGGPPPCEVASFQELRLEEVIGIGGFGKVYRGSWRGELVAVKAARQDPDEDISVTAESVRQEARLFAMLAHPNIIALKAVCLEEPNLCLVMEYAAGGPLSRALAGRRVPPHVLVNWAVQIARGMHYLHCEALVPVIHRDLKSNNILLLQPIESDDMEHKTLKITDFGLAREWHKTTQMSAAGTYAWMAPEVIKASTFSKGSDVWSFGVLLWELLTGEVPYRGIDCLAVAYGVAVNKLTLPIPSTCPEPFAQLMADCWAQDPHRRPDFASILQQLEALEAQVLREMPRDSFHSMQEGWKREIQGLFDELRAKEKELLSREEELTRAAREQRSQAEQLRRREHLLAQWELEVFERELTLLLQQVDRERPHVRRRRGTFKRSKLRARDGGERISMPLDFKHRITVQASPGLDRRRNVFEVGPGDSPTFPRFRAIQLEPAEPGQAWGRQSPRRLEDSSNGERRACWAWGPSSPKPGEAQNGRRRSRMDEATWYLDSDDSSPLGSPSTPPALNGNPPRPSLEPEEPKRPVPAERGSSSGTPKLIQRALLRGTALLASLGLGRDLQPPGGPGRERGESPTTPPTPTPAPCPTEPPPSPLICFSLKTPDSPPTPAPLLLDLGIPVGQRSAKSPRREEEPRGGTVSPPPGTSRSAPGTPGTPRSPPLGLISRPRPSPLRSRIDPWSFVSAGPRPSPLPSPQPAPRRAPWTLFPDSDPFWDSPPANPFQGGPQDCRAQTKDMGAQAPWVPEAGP
Method in brief: as §1

[4] = molecular target: T4, kinases of the scanMAX Kinase assay panel (Homo sapiens, UniProt Q15303); details: ERBB4; 1 uM
T4 construct: purchased DiscoverX Co. (contract measurement) scanMAX Kinase assay panel
T4 sequence (Q15303 26-1308): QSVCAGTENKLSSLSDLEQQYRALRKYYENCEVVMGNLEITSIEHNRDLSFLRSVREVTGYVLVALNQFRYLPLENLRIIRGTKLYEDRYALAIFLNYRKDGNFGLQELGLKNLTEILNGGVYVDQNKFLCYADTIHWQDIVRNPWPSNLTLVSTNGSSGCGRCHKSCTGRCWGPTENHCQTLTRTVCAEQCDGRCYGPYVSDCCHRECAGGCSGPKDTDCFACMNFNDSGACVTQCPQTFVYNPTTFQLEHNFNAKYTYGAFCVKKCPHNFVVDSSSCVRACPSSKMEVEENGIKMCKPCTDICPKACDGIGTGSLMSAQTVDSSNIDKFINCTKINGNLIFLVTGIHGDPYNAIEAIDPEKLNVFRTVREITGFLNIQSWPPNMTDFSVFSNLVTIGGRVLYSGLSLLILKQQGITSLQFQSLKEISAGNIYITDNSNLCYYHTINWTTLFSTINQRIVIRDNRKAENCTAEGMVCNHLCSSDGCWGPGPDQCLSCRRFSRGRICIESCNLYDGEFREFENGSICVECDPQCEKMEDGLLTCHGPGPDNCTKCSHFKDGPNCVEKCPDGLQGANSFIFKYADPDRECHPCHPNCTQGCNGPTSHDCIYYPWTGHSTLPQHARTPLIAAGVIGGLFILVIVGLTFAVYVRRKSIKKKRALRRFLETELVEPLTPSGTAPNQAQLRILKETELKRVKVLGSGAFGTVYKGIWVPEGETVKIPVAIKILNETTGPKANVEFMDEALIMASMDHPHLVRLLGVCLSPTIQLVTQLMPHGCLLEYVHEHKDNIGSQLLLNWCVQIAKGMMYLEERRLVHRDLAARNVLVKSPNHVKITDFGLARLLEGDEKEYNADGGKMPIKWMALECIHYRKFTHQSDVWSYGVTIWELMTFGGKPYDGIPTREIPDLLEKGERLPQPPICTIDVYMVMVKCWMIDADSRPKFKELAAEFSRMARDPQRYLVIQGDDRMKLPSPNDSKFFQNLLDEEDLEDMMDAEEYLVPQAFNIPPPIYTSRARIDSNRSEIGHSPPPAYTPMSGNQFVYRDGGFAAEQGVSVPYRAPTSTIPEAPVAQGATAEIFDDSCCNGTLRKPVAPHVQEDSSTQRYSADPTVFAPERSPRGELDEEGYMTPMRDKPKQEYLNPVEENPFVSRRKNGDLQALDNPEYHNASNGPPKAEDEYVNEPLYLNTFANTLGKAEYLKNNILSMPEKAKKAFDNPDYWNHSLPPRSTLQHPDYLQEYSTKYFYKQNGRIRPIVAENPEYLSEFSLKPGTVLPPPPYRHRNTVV
Method in brief: as §1

[5] = molecular target: T5, kinases of the scanMAX Kinase assay panel (Homo sapiens, UniProt P00533, T790M); details: EGFR(T790M); 1 uM
T5 construct: purchased DiscoverX Co. (contract measurement) scanMAX Kinase assay panel
T5 sequence (P00533 25-1210 T790M): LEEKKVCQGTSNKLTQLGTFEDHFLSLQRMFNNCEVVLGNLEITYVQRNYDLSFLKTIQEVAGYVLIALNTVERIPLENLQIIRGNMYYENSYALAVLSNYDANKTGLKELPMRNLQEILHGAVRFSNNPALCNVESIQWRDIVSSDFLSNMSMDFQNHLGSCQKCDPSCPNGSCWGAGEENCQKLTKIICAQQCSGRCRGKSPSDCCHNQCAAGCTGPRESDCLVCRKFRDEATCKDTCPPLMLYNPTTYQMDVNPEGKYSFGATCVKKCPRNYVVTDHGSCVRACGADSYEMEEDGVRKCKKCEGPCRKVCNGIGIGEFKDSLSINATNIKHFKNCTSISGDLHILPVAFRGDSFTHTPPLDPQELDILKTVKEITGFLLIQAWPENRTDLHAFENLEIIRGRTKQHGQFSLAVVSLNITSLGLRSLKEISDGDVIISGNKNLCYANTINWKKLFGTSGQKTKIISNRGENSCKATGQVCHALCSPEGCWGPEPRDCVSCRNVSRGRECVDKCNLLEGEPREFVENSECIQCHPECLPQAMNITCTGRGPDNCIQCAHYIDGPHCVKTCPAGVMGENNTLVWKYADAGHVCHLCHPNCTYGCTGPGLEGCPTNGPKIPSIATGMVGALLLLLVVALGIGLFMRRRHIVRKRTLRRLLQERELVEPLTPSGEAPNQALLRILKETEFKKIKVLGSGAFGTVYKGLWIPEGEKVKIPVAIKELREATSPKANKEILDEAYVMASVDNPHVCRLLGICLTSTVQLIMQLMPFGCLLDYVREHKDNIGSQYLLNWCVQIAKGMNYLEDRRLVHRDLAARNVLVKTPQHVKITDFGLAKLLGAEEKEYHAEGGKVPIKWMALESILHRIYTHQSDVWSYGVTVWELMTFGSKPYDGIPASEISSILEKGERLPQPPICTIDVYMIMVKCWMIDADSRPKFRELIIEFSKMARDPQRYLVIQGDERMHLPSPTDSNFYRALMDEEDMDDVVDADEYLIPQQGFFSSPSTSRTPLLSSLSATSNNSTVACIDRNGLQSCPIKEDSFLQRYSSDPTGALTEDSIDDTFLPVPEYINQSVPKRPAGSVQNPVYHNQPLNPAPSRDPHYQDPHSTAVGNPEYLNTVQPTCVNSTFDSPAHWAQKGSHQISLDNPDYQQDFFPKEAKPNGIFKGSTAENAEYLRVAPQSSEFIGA
Method in brief: as §1

[6] = molecular target: T6, kinases of the scanMAX Kinase assay panel (Homo sapiens, UniProt P25098); details: GRK2; 1 uM
T6 construct: purchased DiscoverX Co. (contract measurement) scanMAX Kinase assay panel
T6 sequence (P25098 1-689): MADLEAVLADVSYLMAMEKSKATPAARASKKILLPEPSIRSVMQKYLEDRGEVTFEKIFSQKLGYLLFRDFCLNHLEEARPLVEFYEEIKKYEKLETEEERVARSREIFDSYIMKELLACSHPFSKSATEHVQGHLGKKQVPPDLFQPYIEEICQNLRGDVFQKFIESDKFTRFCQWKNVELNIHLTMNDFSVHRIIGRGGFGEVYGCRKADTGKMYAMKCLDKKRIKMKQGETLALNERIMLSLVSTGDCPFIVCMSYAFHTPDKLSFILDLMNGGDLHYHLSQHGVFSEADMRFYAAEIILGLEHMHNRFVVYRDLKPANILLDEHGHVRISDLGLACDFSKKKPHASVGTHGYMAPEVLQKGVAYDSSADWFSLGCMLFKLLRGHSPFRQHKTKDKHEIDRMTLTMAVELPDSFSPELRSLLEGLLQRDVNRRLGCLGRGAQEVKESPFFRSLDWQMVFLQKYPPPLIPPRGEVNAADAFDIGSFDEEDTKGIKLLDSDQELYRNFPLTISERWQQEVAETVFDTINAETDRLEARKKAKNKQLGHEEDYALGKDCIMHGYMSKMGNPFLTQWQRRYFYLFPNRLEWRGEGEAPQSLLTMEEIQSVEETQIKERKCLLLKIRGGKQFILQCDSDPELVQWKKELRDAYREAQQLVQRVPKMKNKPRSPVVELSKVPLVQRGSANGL
Method in brief: as §1

[7] = molecular target: T7, kinases of the scanMAX Kinase assay panel (Homo sapiens, UniProt Q00536); details: PCTK1; 1 uM
T7 construct: purchased DiscoverX Co. (contract measurement) scanMAX Kinase assay panel
T7 sequence (Q00536 whole entry): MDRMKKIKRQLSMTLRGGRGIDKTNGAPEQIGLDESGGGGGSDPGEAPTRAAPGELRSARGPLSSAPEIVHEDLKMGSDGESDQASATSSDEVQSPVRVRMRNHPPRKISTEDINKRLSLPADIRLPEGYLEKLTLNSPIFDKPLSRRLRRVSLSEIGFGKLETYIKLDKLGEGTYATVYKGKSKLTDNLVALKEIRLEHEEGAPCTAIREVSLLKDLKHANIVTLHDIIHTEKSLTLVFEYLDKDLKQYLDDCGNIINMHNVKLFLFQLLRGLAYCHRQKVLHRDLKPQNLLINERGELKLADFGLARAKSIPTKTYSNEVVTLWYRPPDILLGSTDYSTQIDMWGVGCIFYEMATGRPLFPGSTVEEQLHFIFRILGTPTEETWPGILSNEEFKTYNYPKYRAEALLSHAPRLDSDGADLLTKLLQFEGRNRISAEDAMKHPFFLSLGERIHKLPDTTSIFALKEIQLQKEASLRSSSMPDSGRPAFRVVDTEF
Method in brief: as §1

Compound	remaining binding at 1 µM [1]	remaining binding at 1 µM [2]	remaining binding at 1 µM [3]	remaining binding at 1 µM [4]	remaining binding at 1 µM [5]	remaining binding at 1 µM [6]	remaining binding at 1 µM [7]
CC1(Nc2nc(Nc3cnn([C@H]4CCN(C5COC5)C[C@@H]4F)c3Cl)nc3[nH]cc(C#N)c23)CC1 [Example 52, 2-((5-chloro-1-((3S,4S)-3-fluoro-1-(oxetane-3-yl)piperidine-4-yl)-1H-pyrazole-4-yl)amino)((1-methylcyclopropyl)amino)-7H-pyrrolo[2,3-d]pyrimidine-5-carbonitrile]	0%	9.9%	3.1%	45%	1.3%	45%	100%
CNc1nc(Nc2ccc(C(=O)N3CCOCC3)cc2OC)nc2[nH]cc(C#N)c12 [Example 1, 2-((2-methoxy-4-(morpholine-4-carbonyl)phenyl)amino)-4-(methylamino)-7H-pyrrolo[2,3-d]pyrimidine-5-carbonitrile]	0%	98%	78%	99%	61%	97%	77%
CCNc1nc(Nc2ccc(C(=O)N3CCC(N4CCOCC4)CC3)cc2OC)nc2[nH]cc(C(F)(F)F)c12 [Example 104, (4-((4-(ethylamino)-5-(trifluoromethyl)-7H-pyrrolo[2,3-d]pyrimidine-2-yl)amino)-3-methoxyphenyl)(4-morpholinopiperidine-1-yl)methanone]	16%	95%	86%	100%	41%	96%	100%
